{
  "source": "patent US11573241B2",
  "about": "“Total cellular iron as a marker of cancer stem cells and uses thereof” (Institut National de la Sante et de la Recherche Medicale …, priority 2016, dated 2023)",
  "format_in_all_cases": "cell-based",
  "key": {"primary breast cells": {"tested_on": "primary breast cells", "assay": "Toxicity against primary breast cells"}, "SW480": {"tested_on": "SW480", "assay": "Sensibility to AM5", "conditions": "SW480, Colon", "description": "(§1) Cell viability assay. Cell viability assay was carried out by plating 1000 cells/well in 96-well plates. Cells were treated as indicated for 72 h. CellTiter-Blue® Reagent (G8081, Promega) was added after 72 h treatment and cells were incubated for 1 h before recording fluorescence intensities (Excitation, 560/20 nm; Emission, 590/10 nm) using a Perkin Elmer Wallac 1420 Victor2 Microplate Reader."}, "SW620": {"tested_on": "SW620", "assay": "Sensibility to AM5", "conditions": "SW620, Colon", "description": "as §1"}},
  "data": [
    {"compound": "C#CCN[C@@H]1C=C[C@]2(O[C@H]([C@@H](CC)C(=O)[C@@H](C)[C@@H](O)[C@H](C)C3O[C@@H](C(CC)C(=O)O)CC[C@@H]3C)[C@@H](C)C[C@H]2C)O[C@@]12CC[C@@](C)([C@H]1CC[C@](O)(CC)[C@H](C)O1)O2", "note": "(stereo partly drawn) [AM5, Sal-Propargylamine]", "values": [
      {"measurement": "toxicity against primary breast cells", "setting": "primary breast cells", "value": "little toxicity"},
      {"measurement": "Sensibility to AM5", "setting": "SW480", "value": "Third"},
      {"measurement": "Sensibility to AM5", "setting": "SW620", "value": "Third"}
    ]}
  ]
}
